From the supplement of paper PMC10307832 come the findings set out here.

What all share (assay): relative viability (nuclei count vs DMSO), 5 days (fraction); higher = more cells survive
Compound in test [1]: C1CNCCC1C2=CC(=NN2)C3=CC=NC=C3 + CC1(C)CCC(c2ccc(Cl)cc2)=C(CN2CCN(c3ccc(C(=O)NS(=O)(=O)c4ccc(N[C@H](CCN5CCOCC5)CSc5ccccc5)c(S(=O)(=O)C(F)(F)F)c4)cc3)CC2)C1 [Navitoclax] (partner 0.5 µM)
A digest of the protocol: (§1)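 Cells from lung cancer lines were seeded into 1536-well plates and, one day later, dosed by pin tool. Treatments were either a single drug or a fixed dose of an anchor drug with five library-drug doses (not always all listed) in √10 steps. After 5 days, nuclei were stained in a one-step fixation (final 0.05% Triton X-100, 1% formaldehyde, 1 ug/ml Hoechst) and counted on 4× images, and relative viability is the treated-to-vehicle nuclei ratio, as the median of duplicate plates.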

Compound in the test “Tanzisertib + Navitoclax”: O[C@H]1CC[C@H](Nc2ncc3nc(Nc4c(F)cc(F)cc4F)n([C@H]4CCOC4)c3n2)CC1 [Tanzisertib] + CC1(C)CCC(c2ccc(Cl)cc2)=C(CN2CCN(c3ccc(C(=O)NS(=O)(=O)c4ccc(N[C@H](CCN5CCOCC5)CSc5ccccc5)c(S(=O)(=O)C(F)(F)F)c4)cc3)CC2)C1 [Navitoclax] (partner 0.5 µM)
A digest of the protocol: as §1

Compound in the test “Tanzisertib + Tozasertib”: O[C@H]1CC[C@H](Nc2ncc3nc(Nc4c(F)cc(F)cc4F)n([C@H]4CCOC4)c3n2)CC1 [Tanzisertib] + Cc1cc(Nc2cc(N3CCN(C)CC3)nc(Sc3ccc(NC(=O)C4CC4)cc3)n2)n[nH]1 [Tozasertib] (partner 0.1 µM)
The gist of the method:
as §1

Compound in the test “Tanzisertib + Alpelisib”: O[C@H]1CC[C@H](Nc2ncc3nc(Nc4c(F)cc(F)cc4F)n([C@H]4CCOC4)c3n2)CC1 [Tanzisertib] + Cc1nc(NC(=O)N2CCC[C@H]2C(N)=O)sc1-c1ccnc(C(C)(C)C(F)(F)F)c1 [Alpelisib] (partner 2 µM)
A digest of the protocol:
as §1

Take PC-14: the relative viability in test [1] (first compound 0.08 µM) came out at 0.987; in test [1] (first compound 0.8 µM), 1.13; in test [1] (first compound 2.53 µM) it was 1.06; in test [1] (first compound 8 µM), 0.979; in the test with Tanzisertib + Navitoclax (first compound 0.08 µM), 1.03; with Tanzisertib + Navitoclax (first compound 0.253 µM), 1.05. Moreover, the relative viability with Tanzisertib + Navitoclax (first compound 0.8 µM) worked out at 0.934; with Tanzisertib + Navitoclax (first compound 2.53 µM) it was 1.02; in the test with Tanzisertib + Navitoclax (first compound 8 µM), 0.736; with Tanzisertib + Tozasertib (first compound 0.08 µM), 0.652; in the test with Tanzisertib + Tozasertib (first compound 0.253 µM) it was 0.605; with Tanzisertib + Tozasertib (first compound 0.8 µM), 0.54. The relative viability with Tanzisertib + Tozasertib (first compound 2.53 µM) was determined as 0.537; with Tanzisertib + Tozasertib (first compound 8 µM), 0.499; with Tanzisertib + Alpelisib (first compound 0.08 µM), 0.942; in the test with Tanzisertib + Alpelisib (first compound 0.253 µM), 0.947; in the test with Tanzisertib + Alpelisib (first compound 0.8 µM), 0.943; in the test with Tanzisertib + Alpelisib (first compound 2.53 µM), 0.873. Also, the relative viability with Tanzisertib + Alpelisib (first compound 8 µM) was determined as 0.57.

On to RERF-LC-KJ, for which the relative viability in test [1] (first compound 0.08 µM) came to 1.05; in test [1] (first compound 0.8 µM), 1.01; in test [1] (first compound 2.53 µM), 0.76; in test [1] (first compound 8 µM) it was 0.94; in the test with Tanzisertib + Navitoclax (first compound 0.08 µM), 0.918; in the test with Tanzisertib + Navitoclax (first compound 0.253 µM) it was 0.789. Also, the relative viability amounted to 0.791 with Tanzisertib + Navitoclax (first compound 0.8 µM); 0.818 with Tanzisertib + Navitoclax (first compound 2.53 µM); 0.882 in the test with Tanzisertib + Navitoclax (first compound 8 µM); 0.386 with Tanzisertib + Tozasertib (first compound 0.08 µM); 0.554 with Tanzisertib + Tozasertib (first compound 0.253 µM); 0.61 in the test with Tanzisertib + Tozasertib (first compound 0.8 µM). Besides, the relative viability with Tanzisertib + Tozasertib (first compound 2.53 µM) worked out at 0.383; in the test with Tanzisertib + Tozasertib (first compound 8 µM) it was 0.442; in the test with Tanzisertib + Alpelisib (first compound 0.08 µM), 0.819; with Tanzisertib + Alpelisib (first compound 0.253 µM), 0.754; in the test with Tanzisertib + Alpelisib (first compound 0.8 µM), 0.918; with Tanzisertib + Alpelisib (first compound 2.53 µM) it was 0.777. Moreover, in the test with Tanzisertib + Alpelisib (first compound 8 µM), the relative viability came out at 0.719.

On to SK-LU-1, for which the relative viability in test [1] (first compound 0.08 µM) was determined as 1.25; in test [1] (first compound 0.8 µM), 0.913; in test [1] (first compound 2.53 µM) it was 0.85; in test [1] (first compound 8 µM) it was 0.88; with Tanzisertib + Navitoclax (first compound 0.08 µM) it was 0.834; in the test with Tanzisertib + Navitoclax (first compound 0.253 µM), 0.748. Also, the relative viability is 0.759 with Tanzisertib + Navitoclax (first compound 0.8 µM); 1.25 in the test with Tanzisertib + Navitoclax (first compound 2.53 µM); 0.8 with Tanzisertib + Navitoclax (first compound 8 µM); 0.33 with Tanzisertib + Tozasertib (first compound 0.08 µM); 0.316 with Tanzisertib + Tozasertib (first compound 0.253 µM); 0.263 with Tanzisertib + Tozasertib (first compound 0.8 µM). For the same cell line, the relative viability in the test with Tanzisertib + Tozasertib (first compound 2.53 µM) was 0.309; in the test with Tanzisertib + Tozasertib (first compound 8 µM), 0.319; with Tanzisertib + Alpelisib (first compound 0.08 µM), 1.15; in the test with Tanzisertib + Alpelisib (first compound 0.253 µM) it was 0.976; with Tanzisertib + Alpelisib (first compound 0.8 µM) it was 1.12; with Tanzisertib + Alpelisib (first compound 2.53 µM) it was 1.23. In the test with Tanzisertib + Alpelisib (first compound 8 µM), the relative viability came out at 0.912.

Consider SK-MES-1, for which the relative viability in test [1] (first compound 0.08 µM) is 1.26; in test [1] (first compound 0.8 µM) it was 1.36; in test [1] (first compound 2.53 µM), 1.37; in test [1] (first compound 8 µM) it was 1.2; with Tanzisertib + Navitoclax (first compound 0.08 µM) it was 1.31; with Tanzisertib + Navitoclax (first compound 0.253 µM) it was 1.25. Besides, the relative viability with Tanzisertib + Navitoclax (first compound 0.8 µM) was found to be 1.26; with Tanzisertib + Navitoclax (first compound 2.53 µM), 1.22; in the test with Tanzisertib + Navitoclax (first compound 8 µM), 1.21; with Tanzisertib + Tozasertib (first compound 0.08 µM), 0.971; with Tanzisertib + Tozasertib (first compound 0.253 µM) it was 0.889; with Tanzisertib + Tozasertib (first compound 0.8 µM) it was 0.991. The relative viability came to 0.951 in the test with Tanzisertib + Tozasertib (first compound 2.53 µM); 0.992 with Tanzisertib + Tozasertib (first compound 8 µM); 0.922 with Tanzisertib + Alpelisib (first compound 0.08 µM); 0.904 in the test with Tanzisertib + Alpelisib (first compound 0.253 µM); 0.951 in the test with Tanzisertib + Alpelisib (first compound 0.8 µM); 0.921 with Tanzisertib + Alpelisib (first compound 2.53 µM). In addition, the relative viability in the test with Tanzisertib + Alpelisib (first compound 8 µM) came to 0.856.

Consider SW 1573, for which the relative viability came to 0.778 in test [1] (first compound 0.08 µM); 1.2 in test [1] (first compound 0.8 µM); 1.19 in test [1] (first compound 2.53 µM); 1.09 in test [1] (first compound 8 µM); 1.02 in the test with Tanzisertib + Navitoclax (first compound 0.08 µM); 0.994 with Tanzisertib + Navitoclax (first compound 0.253 µM). The relative viability in the test with Tanzisertib + Navitoclax (first compound 0.8 µM) is 0.974; in the test with Tanzisertib + Navitoclax (first compound 2.53 µM) it was 1.05; with Tanzisertib + Navitoclax (first compound 8 µM) it was 0.909; in the test with Tanzisertib + Tozasertib (first compound 0.08 µM), 0.174; in the test with Tanzisertib + Tozasertib (first compound 0.253 µM), 0.185; in the test with Tanzisertib + Tozasertib (first compound 0.8 µM) it was 0.151. Further, the relative viability came to 0.204 with Tanzisertib + Tozasertib (first compound 2.53 µM); 0.139 with Tanzisertib + Tozasertib (first compound 8 µM); 0.823 in the test with Tanzisertib + Alpelisib (first compound 0.08 µM); 0.656 with Tanzisertib + Alpelisib (first compound 0.253 µM); 0.735 with Tanzisertib + Alpelisib (first compound 0.8 µM); 0.81 with Tanzisertib + Alpelisib (first compound 2.53 µM). Also, the relative viability in the test with Tanzisertib + Alpelisib (first compound 8 µM) was determined as 0.578.
